In patent publication US6406701B1, “Method and compositions for preventing or reducing HIV infection” (priority 2000, dated 2002):
Where two headings read alike, the source gives them in different places.

How the values were obtained:
es-LAPase = es-LAPase enzyme kinetics and inhibition (l-leucine-β-naphthylamide, 330 nm); format: biochemical, human; details: for es-LAPase reaction rate versus control es-LAPase (FIG. 3): 167 μM Bestatin, 167 μM reduced glutathione, 17 μM reduced thioredoxin; for mode of es-LAPase inhibition: from Vmax, Km, Ki of Table 4
Protocol: The kinetic assays were performed using a Spectronic Genesys 5 spectrophotometer from Milton Roy (Rochester, N.Y.). Absorbance was recorded every sixty seconds, over a period of 30 min. Enzyme kinetic assays were performed using 8.0×10^−2 U of es-LAPase in a final reaction volume of 600 μl and triplicate samples. […] A corresponding blank without es-LAPase was used as baseline. Both of the cuvettes were transferred to the spectrophotometer where the 1-leucine-β-naphthylamide solution was added last, marking time zero of the reaction.

[1] = tested on: breast carcinoma parental cells; experiment: LAPase release from primary breast carcinoma parental cells after estrogen stimulation (supernatants immunoprecipitated with MAb 7B6, fluorometric assay); format: cell-based, human
Protocol: (§1) Control cells were cultured in the absence of 17-β-Estradiol.). During the same period, LAPase in cell supernatants of control cells remain unchanged. In addition, LAPase activity was determined in supernatants of primary parental cell lines immunoprecipitated with anti-LAP-Protein G MAb 7B6 bound antibodies. […] In addition, there was no effect of estrogen incubation on LAPase activity in purified preparations of this enzyme alone.
Primary parental breast carcinoma cells obtained from human tumour biopsies were stimulated with 100 nM 17-β-Estradiol for 24 hours or cell media alone as a control. The cell media was RPMI 1640 medium+10% FCS+100 U/ml Penicillin+100 μg/ml Streptomycin. Cell supernatants were collected and then dialyzed against PBS in seamless cellulose tubing (MW 12,400) for 12 hours at 4° C. Es-LAPase was subsequently purified from the dialyzed cell supernatants using HPLC-gel permeation followed by DEAE-Cellulose and Bestatin-Sepharose affinity Chromatography. Briefly, the cell supernatant was applied to a Bio-Sil SEC-250 column (600×7.5 mm) previously equilibrated in a buffer containing 100 mM Sodium Phosphate buffer pH 6.8, 100 mM Na2SO4, 1 μM ZnCl2 and 10% glycerol. […]
Es-LAPase activities were determined fluorometrically using leucine-b-naphthylamide as the substrate [Kuramochi, H., et al. (1987) J. Antibiot., 40,1605-1611].

HUT78 cells = experiment: Extracellular LAPase activity of HUT78 cells incubated with 17-β-Estradiol; format: cell-based
HIV [2] = experiment: HIV infectivity of HUT78 cells by reverse transcriptase activity with or without 17-β-Estradiol; details: for RT Activity: estrogen 10^−7 M
Protocol: The sensitivity of CD4^+ T-HUT78 cells to HIV viral infection was determined by measuring the activity of reverse transcriptase in cells infected in the presence/absence of 17-β-Estradiol.

LAPase = experiment: Estrogen incubation with purified LAPase preparations; format: biochemical; details: purified enzyme alone
Protocol: as §1

HIV [3] = details: Tamoxifen concentrations of 10^−6M or higher; cited from earlier work
HIV-1 (HTLVIIIb) [4] = format: cell-based; details: for Cytopathicity / Proviral Load: anti-estrogen 10^−7M combined with Mab 7B6 and thioredoxin matrices
Protocol: (§2) In the continued presence of each of the factors aforementioned, the cells were subsequently infected at a multiplicity of two infective viral particles per cell for two hours at 25° C. with constant agitation in a final volume of 1.0 ml. […] Syncytium formation was evaluated by light microscopy on days 3, 5 and 7.

HIV-1 (HTLVIIIb) [5] = format: cell-based; details: Day 5 post-infection; anti-estrogen 10^−7M combined with Mab 7B6 and thioredoxin matrices
Protocol: as §2
Prior to infection, HUT78 cells were washed three times with PBS and the cell viability was determined. Infection was performed as described above. At indicated time intervals, 1.0 mil aliquots of were taken and p24 antigen quantified using a commercial ELISA kit (p24 Antigen Capture ELISA, ABBOTT Diagnostics Division), following the instructions of the manufacturer.

[6] = es-LAPase with 167 μM inhibitor

N[C@@H](CCC(=O)N[C@@H](CS)C(=O)NCC(=O)O)C(=O)O [Glutathione]
es-LAPase reaction rate versus control es-LAPase (FIG. 3) (es-LAPase): significant slower rates
Vmax (es-LAPase; [6]): 17.2 ± 1.5 10^−6 M/min
mode of es-LAPase inhibition (es-LAPase): noncompetitive

17-β-Estradiol
extracellular LAPase activity of estrogen stimulated cells ([1]; 100 nM, 24 hours, supernatants immunoprecipitated with anti-LAP-Protein G MAb 7B6): 7.7×10^−5 U/ml
estrogen concentration of maximum release of LAPase ([1]; breast carcinoma parental cells, 24 hours of incubation): 100 nM
concentration of maximum stimulation of LAPase release (HUT78 cells): 10^−7 M
LAPase activity, 17-β-Estradiol Stimulation (HUT78 cells; [β-Estradiol] 10^−5 M): 10.8 U* × 10^−5/ml
LAPase activity, 17-β-Estradiol Stimulation (HUT78 cells; [β-Estradiol] 10^−6 M): 20.4 U* × 10^−5/ml
LAPase activity, 17-β-Estradiol Stimulation (HUT78 cells; [β-Estradiol] 10^−7 M): 148.6 U* × 10^−5/ml
LAPase activity, 17-β-Estradiol Stimulation (HUT78 cells; [β-Estradiol] 10^−8 M): 110.7 U* × 10^−5/ml
HIV viral infectivity (RT activity) relative to control cells infected in the absence of estrogen (HIV [2]; 3 days and 5 days post infection): approximately 4 times
RT Activity (HIV [2]; Day 0 (Infection)): 0.68 cpm × 10^2/10 μl
RT Activity (HIV [2]; Day 3 (Post Infection)): 72.42 cpm × 10^2/10 μl
RT Activity (HIV [2]; Day 5 (Post Infection)): 124.44 cpm × 10^2/10 μl
effect of estrogen incubation on LAPase activity in purified preparations of the enzyme (LAPase): no effect

CC/C(=C(\c1ccccc1)c1ccc(OCCN(C)C)cc1)c1ccccc1 [Tamoxifen]
inhibition of HIV infection (HIV [3]): incomplete inhibition
Cytopathicity (HIV-1 (HTLVIIIb) [4]; Day 5 post-infection): 0 Syncytia/well
Proviral Load (HIV-1 (HTLVIIIb) [4]; Day 5 post-infection): 0 copies
P24 (HIV-1 (HTLVIIIb) [5]): 0 nmol/mL

CC(C)C[C@H](NC(=O)[C@@H](O)[C@H](N)Cc1ccccc1)C(=O)O [Bestatin]
HIV-1 proviral copies (HIV-1 (HTLVIIIb) [4]; Day 0 post-infection, 120 μg/ml): 0 copies
HIV-1 proviral copies (HIV-1 (HTLVIIIb) [4]; Day 3 post-infection, 120 μg/ml): 7 ± 2 copies
HIV-1 proviral copies (HIV-1 (HTLVIIIb) [4]; Day 5 post-infection, 120 μg/ml): 29 ± 3 copies
HIV-1 proviral copies (HIV-1 (HTLVIIIb) [4]; Day 7 post-infection, 120 μg/ml): 457 ± 12 copies
es-LAPase reaction rate versus control es-LAPase (FIG. 3) (es-LAPase): clearly inhibits
Vmax (es-LAPase; [6]): 34.0 ± 3.9 10^−6 M/min
mode of es-LAPase inhibition (es-LAPase): competitive

O=C(c1ccc(OCCN2CCCCC2)cc1)c1c(-c2ccc(O)cc2)sc2cc(O)ccc12 [Raloxifene]
Cytopathicity (HIV-1 (HTLVIIIb) [4]; Day 5 post-infection): 3.3 ± 0.1 Syncytia/well
Proviral Load (HIV-1 (HTLVIIIb) [4]; Day 5 post-infection): 8 copies
P24 (HIV-1 (HTLVIIIb) [5]): 0.01 ± .002 nmol/mL

C#C[C@]1(O)CC[C@H]2[C@@H]3CC[C@H]4C[C@@H](O)CC[C@@H]4[C@H]3CC[C@@]21C [3β,5α-tetrahydro Norethisterone]
Cytopathicity (HIV-1 (HTLVIIIb) [4]; Day 5 post-infection): 0 Syncytia/well
Proviral Load (HIV-1 (HTLVIIIb) [4]; Day 5 post-infection): 2 copies
P24 (HIV-1 (HTLVIIIb) [5]): 0 nmol/mL

CC/C(=C(/c1ccc(OCCN(C)C)cc1)c1cccc(O)c1)c1ccccc1 [Droloxifene]
Cytopathicity (HIV-1 (HTLVIIIb) [4]; Day 5 post-infection): 5.2 ± 0.6 Syncytia/well
Proviral Load (HIV-1 (HTLVIIIb) [4]; Day 5 post-infection): 14 copies
P24 (HIV-1 (HTLVIIIb) [5]): 0.04 ± .003 nmol/mL

CC/C(=C(\c1ccc(I)cc1)c1ccc(OCCN2CCCC2)cc1)c1ccccc1 [Idoxifene]
Cytopathicity (HIV-1 (HTLVIIIb) [4]; Day 5 post-infection): 0 Syncytia/well
Proviral Load (HIV-1 (HTLVIIIb) [4]; Day 5 post-infection): 0 copies
P24 (HIV-1 (HTLVIIIb) [5]): 0 nmol/mL

C[C@]12CCC(=O)C(O)=C1CC[C@@H]1[C@@H]2CC[C@]2(C)C(=O)CC[C@@H]12 [4-hydroxyandrostenedione]
Cytopathicity (HIV-1 (HTLVIIIb) [4]; Day 5 post-infection): 4.0 ± 0.4 Syncytia/well
Proviral Load (HIV-1 (HTLVIIIb) [4]; Day 5 post-infection): 12 copies
P24 (HIV-1 (HTLVIIIb) [5]): 0.02 ± .001 nmol/mL

B1: Thioredoxin: Human Thioredoxin purified from CD4+ T MP6 cells; uncompetitive inhibitor of es-LAPase; also linked to EDC/DADPA matrix (protein, UniProt P10599 2-105, looked up)
Thioredoxin: VKQIESKTAFQEALDAAGDKLVVVDFSATWCGPCKMIKPFFHSLSEKYSNVIFLEVDVDDCQDVASECEVKCMPTFQFFKKGQKVGEFSGANKEKLEATINELV
modifications: linked to EDC/DADPA matrix
HIV-1 proviral copies (HIV-1 (HTLVIIIb) [4]; Day 0 post-infection, matrix-bound, 40 ng/5 ml): 0 copies
HIV-1 proviral copies (HIV-1 (HTLVIIIb) [4]; Day 3 post-infection, matrix-bound, 40 ng/5 ml): 4 ± 1 copies
HIV-1 proviral copies (HIV-1 (HTLVIIIb) [4]; Day 5 post-infection, matrix-bound, 40 ng/5 ml): 12 ± 3 copies
HIV-1 proviral copies (HIV-1 (HTLVIIIb) [4]; Day 7 post-infection, matrix-bound, 40 ng/5 ml): 122 ± 8 copies
number of HIV-1 proviral copies compared to control cells (in words) (HIV-1 (HTLVIIIb) [4]; matrix-bound, incubated with HUT 78 cells 7 hours prior to infection): significantly reduces
es-LAPase reaction rate versus control es-LAPase (FIG. 3) (es-LAPase): significant slower rates
Km (es-LAPase; es-LAPase with 17 μM inhibitor): 23.4 ± 0.6 µM
Vmax (es-LAPase; es-LAPase with 17 μM inhibitor): 5.31 ± 0.02 10^−6 M/min
mode of es-LAPase inhibition (es-LAPase): uncompetitive
